This is an account of results in PubChem BioAssay AID256 (DTP/NCI, 2004).

Values joined by “and” are separate entries in the source; they are usually repeats but may differ in a detail not shown here. Equal values may be shown once. Toxic doses and inconclusive results are not listed.

For this assay, the system named is CD2F1 mice, L1210 leukemia ip, survival T/C. Put plainly: NCI In Vivo Anticancer Drug Screen. Data for tumor model L1210 Leukemia (intraperitoneal) in CD2F1 (CDF1) mice. Conditions: endpoint: mean survival time, higher = longer survival. The method, boiled down:
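Compound-dosed mice with transplantable tumor versus matched vehicle controls; endpoint ratio T/C reported.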

[1] abbreviates: dose: 100.0 mg/kg/injection, schedule: Q01DX009 (ip), vehicle: saline with Tween-80.
Where [2] appears, read: dose: 200.0 mg/kg/injection, schedule: Q01DX009 (ip), vehicle: saline with Tween-80.
The mark [3] stands for this setting: dose: 400.0 mg/kg/injection, schedule: Q01DX009 (ip), vehicle: saline with Tween-80.
[4] abbreviates: dose: 100.0 mg/kg/injection, schedule: Q01DX001 (ip), vehicle: saline.
Where [5] appears, read: dose: 200.0 mg/kg/injection, schedule: Q01DX001 (ip), vehicle: saline.
Setting [6] is: dose: 400.0 mg/kg/injection, schedule: Q01DX001 (ip), vehicle: saline.
The mark [7] stands for this setting: dose: 100.0 mg/kg/injection, schedule: Q04DX003 (ip), vehicle: saline with Tween-80.
The mark [8] stands for this setting: dose: 200.0 mg/kg/injection, schedule: Q04DX003 (ip), vehicle: saline with Tween-80.
[9] abbreviates: dose: 400.0 mg/kg/injection, schedule: Q04DX003 (ip), vehicle: saline with Tween-80.

For the compound `CSc1nc(SC)c2c3c(N)ncnc3n(C3OC(CO)C(O)C3O)c2n1` (stereo not drawn), the T/C by setting is: (dose: 12.5 mg/kg/injection, schedule: Q01DX005 (ip), vehicle: other) 107 % of control; (dose: 25.0 mg/kg/injection, schedule: Q01DX005 (ip), vehicle: other) 121 % of control; (dose: 100.0 mg/kg/injection, schedule: Q01DX005 (ip), vehicle: other) 119 % of control; (dose: 250.0 mg/kg/injection, schedule: Q01DX005 (ip), vehicle: other) 121 % of control.

Take `CC(C)(C)c1ccc(O)c(Sc2cc(C(C)(C)C)ccc2O)c1`: the T/C runs as follows: (dose: 50.0 mg/kg/injection, schedule: Q01DX009 (ip), vehicle: other) 96 % of control; (dose: 100.0 mg/kg/injection, schedule: Q01DX009 (ip), vehicle: other) 98 % of control; under setting [1], 98 % of control; (dose: 200.0 mg/kg/injection, schedule: Q01DX009 (ip), vehicle: other) 101 % of control; under setting [2], 103 % of control; under setting [3], 94 % of control.

For the compound `COc1ccc2nc3cc(Cl)ccc3c(NCCNCCNCCNc3c4ccc(Cl)cc4nc4ccc(OC)cc34)c2c1`, the T/C by setting is: (dose: 3.12 mg/kg/injection, schedule: Q01DX009 (ip), vehicle: Klucel (hydroxypropylcellulose) (HPC)) 113 % of control; (dose: 3.12 mg/kg/injection, schedule: Q01DX009 (ip), vehicle: saline with Tween-80) 96 % of control; (dose: 6.25 mg/kg/injection, schedule: Q01DX009 (ip), vehicle: Klucel (hydroxypropylcellulose) (HPC)) 116 % of control; (dose: 6.25 mg/kg/injection, schedule: Q01DX009 (ip), vehicle: saline with Tween-80) 96 % of control; (dose: 12.5 mg/kg/injection, schedule: Q01DX009 (ip), vehicle: Klucel (hydroxypropylcellulose) (HPC)) 101 % of control; (dose: 12.5 mg/kg/injection, schedule: Q01DX009 (ip), vehicle: saline with Tween-80) 102 % of control. Also, the T/C (dose: 25.0 mg/kg/injection, schedule: Q01DX009 (ip), vehicle: saline with Tween-80) is 103 % of control; the T/C (dose: 50.0 mg/kg/injection, schedule: Q01DX009 (ip), vehicle: Klucel (hydroxypropylcellulose) (HPC)) is 90 % of control; the T/C (dose: 50.0 mg/kg/injection, schedule: Q01DX009 (ip), vehicle: saline with Tween-80) is 106 % of control; the T/C under setting [1] is 106 % of control.

`Cc1c2c[n+](CCCCCCCC[n+]3ccc4c(C)c5c(c(C)c4c3)c3ccccc3n5CCO)ccc2c(C)c2c1c1ccccc1n2CCO`: the T/C is, setting by setting: (dose: 1.56 mg/kg/injection, schedule: Q04DX003 (ip), vehicle: distilled water + Tween-80) 119 % of control; (dose: 6.25 mg/kg/injection, schedule: Q04DX003 (ip), vehicle: distilled water + Tween-80) 150 % of control and 159 % of control; (dose: 12.5 mg/kg/injection, schedule: Q04DX003 (ip), vehicle: distilled water + Tween-80) 114 % of control.

`N#[O+].O=[N+]([O-])O.[Co].[NH2-].[NH2-].[NH2-].[NH2-].[NH2-]`: the T/C (dose: 6.25 mg/kg/injection, schedule: Q04DX002 (ip), vehicle: saline with Tween-80) is 95 % of control; the T/C (dose: 12.5 mg/kg/injection, schedule: Q04DX002 (ip), vehicle: saline with Tween-80) was 88 % of control; the T/C (dose: 25.0 mg/kg/injection, schedule: Q04DX002 (ip), vehicle: saline with Tween-80) was 98 % of control.

Consider `CCCN(CCC)S(=O)(=O)c1ccc(NC(=O)Oc2ccc([N+](=O)[O-])cc2)cc1`, for which the T/C by setting is: under setting [4], 94 % of control; under setting [5], 100 % of control; under setting [6], 95 % of control.

Regarding `O=NN(CCCl)C(=O)Nc1c[nH]c2ccccc12`, the T/C is, setting by setting: (dose: 177.0 mg/kg/injection, schedule: Q01DX001 (ip), vehicle: saline with Tween-80) 96 % of control; (dose: 177.0 mg/kg/injection, schedule: Q01DX009 (ip), vehicle: saline with Tween-80) 98 % of control; (dose: 265.0 mg/kg/injection, schedule: Q01DX001 (ip), vehicle: saline with Tween-80) 97 % of control; (dose: 265.0 mg/kg/injection, schedule: Q01DX009 (ip), vehicle: saline with Tween-80) 101 % of control; (dose: 400.0 mg/kg/injection, schedule: Q01DX001 (ip), vehicle: saline with Tween-80) 92 % of control; under setting [3], 97 % of control. In addition, the T/C (dose: 600.0 mg/kg/injection, schedule: Q01DX001 (ip), vehicle: saline with Tween-80) is 91 % of control.

In the case of `CC1OC(OC2CC(O)(C(=O)CO)Cc3c(O)c4c(c(O)c32)C(=O)c2ccccc2C4=O)CC(N)C1O` (stereo not drawn), the T/C runs as follows: (dose: 0.03 mg/kg/injection, schedule: Q01DX009 (ip), vehicle: water) 114 % of control; (dose: 0.13 mg/kg/injection, schedule: Q01DX009 (ip), vehicle: water) 151 % of control; (dose: 0.25 mg/kg/injection, schedule: Q01DX009 (ip), vehicle: water) 175 % of control; (dose: 1.0 mg/kg/injection, schedule: Q01DX009 (ip), vehicle: water) 102 % of control.

With `CC1CC[N-]CC1.CC1CC[N-]CC1.CC1CC[N-]CC1.CC1CC[N-]CC1.CS(C)=O.CS(C)=O.[Cl-].[Cl-].[Cl-].[Cl-].[Pt+4].[Rh+3]`, the T/C is 97 % of control (dose: 0.2 mg/kg/injection, schedule: Q01DX009 (ip), vehicle: water); 92 % of control (dose: 0.4 mg/kg/injection, schedule: Q01DX009 (ip), vehicle: water); 102 % of control (dose: 0.78 mg/kg/injection, schedule: Q04DX003 (ip), vehicle: Klucel (hydroxypropylcellulose) (HPC)); 93 % of control (dose: 0.8 mg/kg/injection, schedule: Q01DX009 (ip), vehicle: water); 97 % of control (dose: 1.5 mg/kg/injection, schedule: Q01DX009 (ip), vehicle: water); 98 % of control (dose: 1.56 mg/kg/injection, schedule: Q04DX003 (ip), vehicle: Klucel (hydroxypropylcellulose) (HPC)). The T/C is, setting by setting: (dose: 3.0 mg/kg/injection, schedule: Q01DX009 (ip), vehicle: water) 92 % of control; (dose: 3.13 mg/kg/injection, schedule: Q04DX003 (ip), vehicle: Klucel (hydroxypropylcellulose) (HPC)) 102 % of control; (dose: 6.25 mg/kg/injection, schedule: Q04DX003 (ip), vehicle: water) 103 % of control.

Regarding `CN1CN(C2CCCCC2)CSC1=S`, the T/C runs as follows: under setting [4], 102 % of control; under setting [1], 102 % of control; under setting [5], 100 % of control; under setting [2], 96 % of control; under setting [6], 102 % of control; under setting [3], 106 % of control.

As for `CNC(=O)Nc1nnnc2ccccc12`, the T/C under setting [7] is 95 % of control.

For the compound `CCCCCCCCCCCCN=C(N)C(N)=NCCCCCCCCCCCC`, the T/C was 93 % of control (dose: 25.0 mg/kg/injection, schedule: Q04DX002 (ip), vehicle: other); 93 % of control (dose: 50.0 mg/kg/injection, schedule: Q04DX002 (ip), vehicle: other); 116 % of control (dose: 100.0 mg/kg/injection, schedule: Q04DX002 (ip), vehicle: other).

As for `O=[N+]([O-])c1cc(I)c(I)c(I)c1`, the T/C under setting [7] was 98 % of control, the T/C under setting [8] is 104 % of control and the T/C under setting [9] was 98 % of control.

Take `O=C1CC(c2ccccc2)CC(=O)O1`: the T/C is, setting by setting: under setting [7], 102 % of control; under setting [8], 100 % of control; under setting [9], 92 % of control.

Consider `CCCCCOC(=O)CCCc1ccc(N(CCCl)CCCl)cc1`, for which the T/C is, setting by setting: (dose: 12.5 mg/kg/injection, schedule: Q01DX009 (ip), vehicle: saline) 118 % of control; (dose: 100.0 mg/kg/injection, schedule: Q01DX009 (ip), vehicle: saline) 88 % of control.

For `NCCOc1ccc(-n2cnc3c(=O)[nH]c(N)nc32)cc1`, the T/C by setting is: (dose: 50.0 mg/kg/injection, schedule: Q04DX002 (ip), vehicle: saline with Tween-80) 93 % of control; (dose: 100.0 mg/kg/injection, schedule: Q04DX002 (ip), vehicle: saline with Tween-80) 96 % of control; (dose: 200.0 mg/kg/injection, schedule: Q04DX002 (ip), vehicle: saline with Tween-80) 104 % of control.

Regarding `COC(=O)/C=C\n1cnc2ccccc21`, the T/C reads like this: (dose: 75.0 mg/kg/injection, schedule: Q01DX009 (ip), vehicle: other) 95 % of control; (dose: 150.0 mg/kg/injection, schedule: Q01DX009 (ip), vehicle: other) 101 % of control; (dose: 300.0 mg/kg/injection, schedule: Q01DX009 (ip), vehicle: other) 110 % of control.
